Experimental data as given in patent US20250090562A1, “METHODS, COMPOSITIONS AND USES RELATED TO THE TREATMENT AND PREVENTION OF LEIGH’S SYNDROME” (Stealth BioTherapeutics Inc., priority 2023, published 2025).

Key:
Format in all cases: cell-based, human
[1] = system: rotenone-inhibited Complex I; assay: Complex I-bypass assay ((CI)-bypass assay), high-resolution respirometry O2 consumption; conditions: Leigh (GM03672) fibroblasts, 0.5 μM rotenone, oxygen consumption rate; read-out: EC50 value, Complex I by-pass activity
Description: All high-resolution respirometry experiments were conducted using the Oroboros O2k-Fluorespirometer (Oroboros, Innsbruck, Austria). The Oroboros O2k-Fluorespirometer was calibrated daily using the air calibration protocol on DatLab 7.4 (Oroboros, Innsbruck, Austria). Prior to each experiment requiring the fluorescence module, the AmpR calibration protocol from DatLab 7.4 was used to calibrate the fluorescence signal. Initial data analysis, including setting of marks, was performed using DatLab 7.4.
Complex I-bypass activity was assessed using HRR to measure O2 consumption. Briefly, Leigh (GM03672) fibroblasts were harvested with trypsin, pelleted at 300×g centrifugation, and resuspended in prewarmed, complete MEM. Cells were added to each chamber via buffer replacement at a concentration of 1-2 million per mL. The chambers were closed to initiate measurement of O2 consumption. The slope negative signal, which is a derivative of O2 consumption, was allowed to stabilize over the course of several minutes. Using a Hamilton syringe to allow for continuous measurement of O2 consumption, glutamate (10 mM final concentration) and malate (0.1 mM final concentration) were added to the closed chamber through the central capillary of the stopper. The slope negative signal was stabilized for several minutes, and rotenone was added at a final concentration of 0.5 μM. One of Compounds 1 to 4 or Vatiquinone was added at increasing concentrations, allowing for several minutes of stabilization of the slope negative signal between titrations. Marks were set at signal plateaus in between titrations. Values were exported and analyzed using GraphPad Prism 9. […] Responsiveness of cells was confirmed with idebenone.
Statistical analysis was performed using GraphPad Prism 9. Complex I-bypass data were fit using nonlinear sigmoidal 4P fit. RET Assay data were analyzed by 2-way ANOVA using a p-value of 0.05.
The Complex 1-bypass assay ((CI)-bypass Assay) evaluates the capacity of compounds to donate electrons into the electron transport chain (ETC) when Complex I is impaired or otherwise deficient. Normally, electrons feed into the ETC through Complex I. In instances where Complex I is impaired, electrons must enter the ETC downstream of Complex I for oxidative phosphorylation (OXPHOS) to occur. Complex I is composed of 46 subunits, encoded by mitochondrial and nuclear genes. Due to its large size, Complex I mutations are a common cause of ETC dysfunction in mitochondrial diseases. Indeed, mutations in the genes that encode subunits for Complex I are important causes of Leigh and Leigh-like syndrome.
Using this assay, the ability of Compounds 1 to 4 and Vatiquinone to bypass rotenone-inhibited Complex I was determined. Rotenone is a widely used Complex I inhibitor and blocks the transfer of electrons from the iron-sulfur complexes on Complex I to ubiquinone. Thus, when rotenone is introduced to cells underdoing routine respiration, a decrease in oxygen consumption is observed, which is indicative of disrupted OXPHOS. The ability of Compounds 1 to 4 and Vatiquinone to “bypass” Complex I and restore OXPHOS is measured by an increase in oxygen consumption rate following addition of the compound to the chamber.
In executing this assay, in each instance, fibroblasts are added to each chamber of the Oroboros Oxygraph-2K (the “O2k”). The O2k generates two traces: 1) total oxygen consumption over time, 2) the rate of oxygen consumption over time (slope negative). Baseline respiration is established for several minutes by allowing the slope negative to stabilize. Rotenone is introduced to each chamber at a final concentration of 0.5 μM. The addition of rotenone is expected to cause a marked reduction of OXPHOS as measured by a decreased rate of oxygen consumption. Then the test article (i.e., in this case one of Compounds 1 to 4 or Vatiquinone) is added to the chamber. […]

[2] = system: Leigh syndrome (GM03672) fibroblasts; assay: RSL3 cytoprotection assay, Leigh fibroblasts; conditions: 375 nM RSL3, 10-1000 nM compound, 4 h
Description: Patient fibroblasts were acquired from Coriell Institute for Medical Research (Camden, NJ, USA). GM03672 is an untransformed fibroblast cell line from a Leigh syndrome patient carrying an unknown mutation. GM08402 is an untransformed fibroblast from an apparently healthy individual. Cells were cultured at 37° C. at 5% CO2 in Eagle's Minimum Essential Medium (MEM, Corning), which was supplemented with Earle's salts and non-essential amino acids, 15% qualified fetal bovine serum, and 1% penicillin/streptomycin ([…]) to yield “Complete MEM.”
To initiate the RSL3 cytoprotection experiment, Healthy (GM08402) and Leigh syndrome (GM03672) fibroblasts were resuspended in Complete MEM. Cells were seeded at 10,000 cells per well in a clear, tissue cultured-treated, 96-well plate and incubated at 37° C. overnight. Following the incubation, supernatant was manually aspirated, taking care not to disrupt cells. […]. Luminescence units were quantified by GEN5 software on a BioTek SYNERGY neo2 plate reader (LUM filter).
RSL3 is an inhibitor of the enzyme glutathione peroxidase 4 (GPX4), which decreases lipid peroxides. RSL3 inhibition of GPX4 induces ferroptosis through iron-dependent accumulation of lipid ROS. In this assay, Healthy or Leigh fibroblasts were treated for 4 hours with RSL3 to induce ferroptosis or left untreated. Endogenous ATP levels were measured as an indicator of cellular viability using a commercially available kit (CellTiter-Glo® 2.0 Cell Viability Assay (Promega)).
[…]. […] Briefly, ferroptosis was induced with 1 μM RSL3 in healthy fibroblast cells and 375 nM RSL3 in fibroblasts from a patient with Leigh syndrome.
A preliminary experiment was performed to determine the effect of RSL3 injury on the fibroblasts of a healthy individual (cell line: GM08402) and the fibroblasts of a patient diagnosed with Leigh syndrome (cell line: GM03672).

15-lipoxygenase (15-LO) = assay: 15(S)-HETE ELISA following RSL3 treatment, Leigh fibroblasts; conditions: 700 nM RSL3, 1 μM compound, 24 h
Description: Samples for the 15(S)-HETE ELISA were generated by the RSL3 cytoprotection assay described above. Healthy or Leigh fibroblasts were resuspended in assay medium, seeded at 200,000 cells per well in a clear, tissue culture-treated, 24-well plate. Cells were incubated at 37° C. for 24 hours. Supernatant was aspirated from each well following the incubation.
Fibroblasts from both a healthy individual and a patient diagnosed with Leigh syndrome were examined (but not all compounds were examined in each cell type). Activation of ferroptosis has been implicated as a driver of epilepsy, which is commonly associated with Leigh syndrome. […] Kahn-Kirby et al. PLOS One. […] As a key regulator of ferroptosis, 15-LO serves as a rational therapeutic target in Leigh syndrome.

CC1=C(C)C(=O)C(CC[C@@](C)(O)CC/C=C(\C)CCC=C(F)F)=C(C)C1=O [Compound 2]
EC50 [1]: ~4.09 µM
relative anti-ferroptosis properties (comparison between test articles) [2]: superior to Compounds 1, 4 and Vatiquinone
relative 15-LO inhibition (comparison between test articles) (15-lipoxygenase (15-LO)): roughly equivalent protective effect

CC1=C(C)C(=O)C(CC[C@@](C)(O)COCCC[Si](C)(C)C)=C(C)C1=O [Compound 3]
EC50 [1]: ~3.41 µM
relative anti-ferroptosis properties (comparison between test articles) [2]: superior to Compounds 1, 4 and Vatiquinone
relative 15-LO inhibition (comparison between test articles) (15-lipoxygenase (15-LO)): roughly equivalent protective effect

CC1=C(C)C(=O)C(CC[C@](C)(O)CCCCCCCCC(F)(F)F)=C(C)C1=O [Compound 4]
EC50 [1]: ~8.8 µM
relative anti-ferroptosis properties (comparison between test articles) [2]: roughly equivalent in their anti-ferroptosis properties
relative 15-LO inhibition (comparison between test articles) (15-lipoxygenase (15-LO)): roughly equivalent protective effect
